Source: patent US20240148676A1, “COMBINATION THERAPY WITH PD-1 SIGNAL INHIBITOR” (Kyoto University, priority 2021, published 2024)

Key:
[1] = system: LLC cells; assay: LLC tumor growth in WT mice, anti-PD-L1 antibody and/or CD45 inhibitor; type: in vivo, mouse; settings: young WT mice; for tumor growth: CD45 inhibitor (3 mg/kg i.p., from day 7, three times) in combination with anti-PD-L1 antibody (2 mg/kg, days 7, 13, 19), LLC 2×10^6; for inhibitory effect against LLC tumor growth: CD45 inhibitor alone
Procedure: (§1) CD45 inhibition (FIG. 12): 2-(4-acetylanilino)-3-chloronaphthoquinone (211) (530197, EDM Millipore) (12) (3 mg/kg) or N-(9,10-dioxo-9,10-dihydrophenanthren-2-yl)-2,2-dimethylpropionamide (PTP) (540215, Sigma-Aldrich) (13) (3 mg/kg) was administered intraperitoneally to mice before tumor cell inoculation or 5 or 7 days after tumor cell inoculation. MC38 cells (5×10^5 or 1×10^6) or LLC cells (2×10^6) were intradermally inoculated into the right flank of mice (day 0). Seven days after LLC cell inoculation (day 7), mice received intraperitoneal administration of anti-PD-L1 antibody (clone 1-111A.4) (2 mg/kg). Administration of this anti-PD-L1 antibody was repeated 3 times at an interval of 6 days (on days 7, 13, and 19). Tumor size was measured with calipers, and tumor volume was calculated using the following formula: π (length×breadth×height)/6.
LLC cells (2×10^6 cells/tumor) were i.d. inoculated into the right flank of young (1 to 2-month old) WT mice (FIG. 16A). After 7 days, therapy was started using anti-PD-L1 antibody alone or in combination with CD45 inhibitor (211 or PTP) to examine tumor growth (FIG. 16A). […] Further, a therapeutic effect of using CD45 inhibitor alone was examined under similar conditions.

[2] = system: MC38 murine colon adenocarcinoma cells; assay: MC38 tumor growth in PD-1 KO mice given CD45 inhibitor; type: in vivo, mouse; settings: for tumor volume: PD-1 KO mice (2-month old), vs vehicle
Procedure: as §1
CD45 inhibitor (211) was administered intraperitoneally at 3 mg/kg to PD-1 KO mice (2-month old) once 3 days before inoculation of MC38 murine colon adenocarcinoma cells (preadministration) or 3 times 5 days after inoculation of MC38 cells (postadministration) (FIG. 13A and B). MC38 cells were intradermally inoculated into the right flank of miceat 1×10^6 cells/tumor.
CD45 inhibitor (211) was administered intraperitoneally at 3 mg/kg to young (1 to 2-month old) or aged (14 to 16-month old) PD-1 KO mice […]. Three days after administration of 211, MC38 cells were intradermally inoculated into the right flank of mice at 5×10^5 cells/tumor, followed by monitoring tumor growth.

CC(C)(C)C(=O)Nc1ccc2c(c1)C(=O)C(=O)c1ccccc1-2 [PTP, N-(9,10-dioxo-9,10-dihydrophenanthren-2-yl)-2,2-dimethylpropionamide]
tumor growth [1]: significantly inhibited
inhibitory effect against LLC tumor growth [1]: significant inhibitory effect was not shown

CC(=O)c1ccc(NC2=C(Cl)C(=O)c3ccccc3C2=O)cc1 [compound 211, 2-(4-acetylanilino)-3-chloronaphthoquinone]
tumor growth ([2]; aged (14 to 16-month old) PD-1 KO mice, 3 mg/kg i.p. 3 days before MC38 (5×10^5) inoculation): strongly inhibited
tumor volume ([2]; postadministration: 3 mg/kg i.p. 3 times from day 5 after MC38 (1×10^6) inoculation): significantly reduced
tumor volume ([2]; preadministration: 3 mg/kg i.p. once 3 days before MC38 (1×10^6) inoculation): significantly reduced
tumor growth [1]: significantly inhibited
inhibitory effect against LLC tumor growth [1]: significant inhibitory effect was not shown
